Test results as given in BindingDB's records for doi:10.1016/j.bmc.2005.01.048 (Pfizer, 2005).

Each compound was assayed against T1, Renin (Homo sapiens, UniProt P00797) (assay: In Vitro Renin IC50 Determinations (Tandem GFP FRET Assay)). Conditions: pH 7.4; 22 °C.
T1 sequence (P00797 whole entry): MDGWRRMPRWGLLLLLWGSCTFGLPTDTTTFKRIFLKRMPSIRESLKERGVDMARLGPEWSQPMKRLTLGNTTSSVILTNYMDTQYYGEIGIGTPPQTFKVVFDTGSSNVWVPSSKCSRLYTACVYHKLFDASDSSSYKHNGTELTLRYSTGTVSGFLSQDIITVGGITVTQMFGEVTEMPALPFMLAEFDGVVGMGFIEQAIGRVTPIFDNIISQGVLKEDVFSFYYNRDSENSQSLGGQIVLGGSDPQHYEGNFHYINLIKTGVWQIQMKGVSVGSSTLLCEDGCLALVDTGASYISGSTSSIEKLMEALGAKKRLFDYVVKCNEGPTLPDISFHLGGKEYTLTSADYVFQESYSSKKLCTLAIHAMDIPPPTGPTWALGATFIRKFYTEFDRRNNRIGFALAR
Description: The renin assay utilized a tandem Green Flourescent Protein (tGFP) substrate that was hydrolyzed by human rennin. The tGFP substrate contained a nine amino acid (Ile-His-Pro-Phe-His-Leu-Val-Ile-His) recognition sequence for human renin flanked by two GPF proteins (W1B and Topaz). Human rennin cleaves the leucine-valine site of the substrate linker. Once cleaved, the emission ratio changes. The change was monitored by the ratio of 530 nm (topaz) over 475 nm (W1B) with the excitation set at 432 nm and the cutoff at 515 nm. The assay used a 384 well plate format that was read using a Gemini XS Fluorometric plate reader (Molecular Devices). Compounds were screened at a starting concentration of 10 uM and used a fourfold eleven-point dilution regiment.

| Structure (SMILES) | IC50 [nM] |
| --- | --- |
| COc1ccccc1COCCCOc1ccc(N2C(=O)CNC[C@@H]2COc2ccc3c(c2)N(CCNC(C)=O)CCC3)cc1 | 0.3 |
| COc1ccccc1COCCCOc1ccc(N2CCNC[C@@H]2COc2ccc3ccccc3c2)cc1 [(2R)-1-(4-{3-[(2-methoxyphenyl)methoxy]propoxy}phenyl)-2-[(naphthalen-2-yloxy)methyl]piperazine] | 180 |
| COc1ccccc1COCCCOc1ccc(N2CCNC[C@@H]2COCc2ccc(-c3ccccc3)cc2)cc1 [(2R)-1-(4-{3-[(2-methoxyphenyl)methoxy]propoxy}phenyl)-2-{[(4-phenylphenyl)methoxy]methyl}piperazine] | 1020 |
| COc1ccccc1COCCCOc1ccc(N2CCNC[C@@H]2COc2ccc3c(c2)N(CCNC(C)=O)CCC3)cc1 [N-[2-(7-{[(2R)-1-(4-{3-[(2-methoxyphenyl)methoxy]propoxy}phenyl)piperazin-2-yl]methoxy}-1,2,3,4-tetrahydroquinolin-1-yl)ethyl]acetamide] | 0.5 |
